# Measurements from BindingDB's records for doi:10.1016/j.bioorg.2016.12.009 (Universiti Teknologi Mara (Uitm), 2017).
# pIC50: −log10 of the molar value.
# Molecular target: Alpha-glucosidase MAL12 (Saccharomyces cerevisiae (strain ATCC 204508 / S288c), UniProt P53341)
# Test: Baker's Yeast α-Glucosidase Inhibition Assay
# Settings: pH 6.8; 37 °C
# Protocol: The enzyme inhibition was evaluated according to the method previously reported by Zawawi et al. [Zawawi et al., Bioorg. Chem., 23:3119] with slight modification. Various concentration of test compounds (10 μL) were dissolved in DMSO (ranging from 200 to 6.25 μg/mL) and premixed with 95 μL of 50 mM phosphate buffer (pH 6.8). Then, 25 μL of enzyme (0.0625 U/mL) in phosphate buffer saline was added into each well and the plate was incubated at 37 °C for 10 min. Afterward, 25 μl of PNPG in phosphate buffer saline (5 mM) were added and pre-read of the plate was taken by using a microplate reader (Spectrostar Nano BMG Labtech, Germany). The reaction mixture was then incubated at 37 °C for 30 min and change in absorbance at 405 nm was monitored up to 30 min. For negative control, the test samples were replaced with 10 μL of DMSO and acarbose was used as positive control. All experiments were triplicated and the results were expressed as the mean ± S.E.M of three determinations.
# Alpha-glucosidase MAL12, sequence (P53341 whole entry): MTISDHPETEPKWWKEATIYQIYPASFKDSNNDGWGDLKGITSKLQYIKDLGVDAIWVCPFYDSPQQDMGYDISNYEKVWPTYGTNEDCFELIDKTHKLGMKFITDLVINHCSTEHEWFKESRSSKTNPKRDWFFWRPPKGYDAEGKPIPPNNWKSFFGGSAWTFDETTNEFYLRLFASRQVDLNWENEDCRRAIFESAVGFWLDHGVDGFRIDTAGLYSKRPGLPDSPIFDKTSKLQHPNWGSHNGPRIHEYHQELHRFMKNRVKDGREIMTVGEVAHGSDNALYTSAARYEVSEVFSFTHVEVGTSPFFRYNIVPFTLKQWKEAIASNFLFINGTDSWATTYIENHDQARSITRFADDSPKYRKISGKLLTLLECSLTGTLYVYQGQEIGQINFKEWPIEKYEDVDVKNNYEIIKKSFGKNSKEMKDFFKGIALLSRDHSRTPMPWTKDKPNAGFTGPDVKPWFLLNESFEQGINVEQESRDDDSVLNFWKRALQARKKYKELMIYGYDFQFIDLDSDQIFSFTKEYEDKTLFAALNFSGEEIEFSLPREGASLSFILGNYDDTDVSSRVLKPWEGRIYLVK
row,SMILES,pIC50
1,"Cc1cc2nc(-c3ccc(C(=O)NNC(=S)Nc4ccc(C(F)(F)F)cc4)cc3)[nH]c2cc1C [2-(4-(5,6-Dimethyl-1H-benzo[d]imidazol-2-yl)benzoyl)-N-(4(trifluoromethyl)phenyl)hydrazinecarbothioamide (15)]",3.79
2,"Cc1cc2nc(-c3ccc(C(=O)NNC(=S)Nc4ccccc4Cl)cc3)[nH]c2cc1C [N-(2-chlorophenyl)-2-(4-(5,6-dimethyl-1H-benzo[d]imidazol-2-yl)benzoyl)hydrazinecarbothioamide (2)]",3.55
3,"Cc1cc2nc(-c3ccc(C(=O)NNC(=S)Nc4ccccc4F)cc3)[nH]c2cc1C [2-(4-(5,6-dimethyl-1H-benzo[d]imidazol-2-yl)benzoyl)-N-(2-fluorophenyl)hydrazinecarbothioamide (3)]",3.64
4,"Cc1cc2nc(-c3ccc(C(=O)NNC(=S)Nc4ccccc4Br)cc3)[nH]c2cc1C [N-(2-bromophenyl)-2-(4-(5,6-dimethyl-1H-benzo[d]imidazol-2-yl)benzoyl)hydrazinecarbothioamide (1)]",3.89
5,"Cc1cc2nc(-c3ccc(C(=O)NNC(=S)Nc4ccc(Br)cc4)cc3)[nH]c2cc1C [N-(4-bromophenyl)-2-(4-(5,6-dimethyl-1H-benzo[d]imidazol-2-yl)benzoyl)hydrazinecarbothioamide (10)]",4.30
6,"Cc1cc2nc(-c3ccc(C(=O)NNC(=S)Nc4ccc(Cl)cc4)cc3)[nH]c2cc1C [N-(4-chlorophenyl)-2-(4-(5,6-dimethyl-1H-benzo[d]imidazol-2-yl)benzoyl)hydrazinecarbothioamide (11)]",3.73
7,"Cc1cc2nc(-c3ccc(C(=O)NNC(=S)Nc4ccc([N+](=O)[O-])cc4)cc3)[nH]c2cc1C [2-(4-(5,6-Dimethyl-1H-benzo[d]imidazol-2-yl)benzoyl)-N-(4-nitrophenyl)hydrazinecarbothioamide (14)]",4.45

# More lines, now with the values ahead:
row,pIC50,SMILES
1,3.93,"Cc1cc2nc(-c3ccc(C(=O)NNC(=S)Nc4cccc([N+](=O)[O-])c4)cc3)[nH]c2cc1C [2-(4-(5,6-Dimethyl-1H-benzo[d]imidazol-2-yl)benzoyl)-N-(3-nitrophenyl)hydrazinecarbothioamide (9)]"
2,3.53,"Cc1ccc(NC(=S)NNC(=O)c2ccc(-c3nc4cc(C)c(C)cc4[nH]3)cc2)cc1 [2-(4-(5,6-Dimethyl-1H-benzo[d]imidazol-2-yl)benzoyl)-N-(p-tolyl)hydrazinecarbothioamide (17)]"
3,3.66,"Cc1cccc(NC(=S)NNC(=O)c2ccc(-c3nc4cc(C)c(C)cc4[nH]3)cc2)c1 [2-(4-(5,6-Dimethyl-1H-benzo[d]imidazol-2-yl)benzoyl)-N-(m-tolyl)hydrazinecarbothioamide (16)]"
4,3.52,"COc1ccc(NC(=S)NNC(=O)c2ccc(-c3nc4cc(C)c(C)cc4[nH]3)cc2)cc1 [2-(4-(5,6-Dimethyl-1H-benzo[d]imidazol-2-yl)benzoyl)-N-(4-methoxyphenyl)hydrazinecarbothioamide (13)]"
5,3.56,"Cc1cc2nc(-c3ccc(C(=O)NNC(=S)Nc4ccc(F)cc4)cc3)[nH]c2cc1C [2-(4-(5,6-Dimethyl-1H-benzo[d]imidazol-2-yl)benzoyl)-N-(4-fluorophenyl)hydrazinecarbothioamide (12)]"
6,4.14,"COc1cccc(NC(=S)NNC(=O)c2ccc(-c3nc4cc(C)c(C)cc4[nH]3)cc2)c1 [2-(4-(5,6-Dimethyl-1H-benzo[d]imidazol-2-yl)benzoyl)-N-(3-methoxyphenyl)hydrazinecarbothioamide (8)]"
7,3.61,"Cc1cc2nc(-c3ccc(C(=O)NNC(=S)Nc4cccc(F)c4)cc3)[nH]c2cc1C [2-(4-(5,6-Dimethyl-1H-benzo[d]imidazol-2-yl)benzoyl)-N-(3-fluorophenyl)hydrazinecarbothioamide (7)]"
8,3.75,"Cc1cc2nc(-c3ccc(C(=O)NNC(=S)Nc4cccc(Br)c4)cc3)[nH]c2cc1C [N-(3-bromophenyl)-2-(4-(5,6-dimethyl-1H-benzo[d]imidazol-2-yl)benzoyl)hydrazinecarbothioamide (6)]"
9,3.46,"COc1ccccc1NC(=S)NNC(=O)c1ccc(-c2nc3cc(C)c(C)cc3[nH]2)cc1 [2-(4-(5,6-Dimethyl-1H-benzo[d]imidazol-2-yl)benzoyl)-N-(2-methoxyphenyl)hydrazinecarbothioamide (4)]"
10,4.21,"Cc1cc2nc(-c3ccc(C(=O)NNC(=S)Nc4ccc(Cl)c(Cl)c4)cc3)[nH]c2cc1C [N-(3,4-dichlorophenyl)-2-(4-(5,6-dimethyl-1H-benzo[d]imidazol-2-yl)benzoyl)hydrazinecarbothioamide (5)]"
